Values of other authors as cited in patent publication US7560446B2, “Use of angiotensin II receptor antagonists for treating acute myocardial infarction” (Novartis AG, priority 1999, dated 2009).

Conditions: preclinical; administration of the compound in acute MI; no details given

## CCCCC(=O)N(Cc1ccc(-c2ccccc2-c2nnn[nH]2)cc1)[C@H](C(=O)O)C(C)C [valsartan, (S)—N-(1-carboxy-2-methylprop-1-yl)-N-pentanoyl-N—[2′(1H-tetrazol-5-yl)biphenyl-4-ylmethyl]amine]
  size of the MI: reduce the size of the MI
